Measurements reported in BindingDB's records for patent US12187709 (Genentech, 2025).

Assays:
[1] = molecular target: T1, E3 ubiquitin-protein ligase CBL (Homo sapiens, UniProt P22681); assay: Cbl-b and C-Cbl LCK Ub TR-FRET Assay
Experimental: 6 μL of detection mixture was added to all wells and briefly centrifuged before incubating for 20 min at room temperature. […] IC50 was generated using no LCK as the low control and DMSO as the high control.

[2] = molecular target: E3 ubiquitin-protein ligase CBL-B (Homo sapiens, UniProt Q13191); assay: Multi-Point Chaser SPR Assay Variation
Sequence of E3 ubiquitin-protein ligase CBL-B (Q13191 whole entry): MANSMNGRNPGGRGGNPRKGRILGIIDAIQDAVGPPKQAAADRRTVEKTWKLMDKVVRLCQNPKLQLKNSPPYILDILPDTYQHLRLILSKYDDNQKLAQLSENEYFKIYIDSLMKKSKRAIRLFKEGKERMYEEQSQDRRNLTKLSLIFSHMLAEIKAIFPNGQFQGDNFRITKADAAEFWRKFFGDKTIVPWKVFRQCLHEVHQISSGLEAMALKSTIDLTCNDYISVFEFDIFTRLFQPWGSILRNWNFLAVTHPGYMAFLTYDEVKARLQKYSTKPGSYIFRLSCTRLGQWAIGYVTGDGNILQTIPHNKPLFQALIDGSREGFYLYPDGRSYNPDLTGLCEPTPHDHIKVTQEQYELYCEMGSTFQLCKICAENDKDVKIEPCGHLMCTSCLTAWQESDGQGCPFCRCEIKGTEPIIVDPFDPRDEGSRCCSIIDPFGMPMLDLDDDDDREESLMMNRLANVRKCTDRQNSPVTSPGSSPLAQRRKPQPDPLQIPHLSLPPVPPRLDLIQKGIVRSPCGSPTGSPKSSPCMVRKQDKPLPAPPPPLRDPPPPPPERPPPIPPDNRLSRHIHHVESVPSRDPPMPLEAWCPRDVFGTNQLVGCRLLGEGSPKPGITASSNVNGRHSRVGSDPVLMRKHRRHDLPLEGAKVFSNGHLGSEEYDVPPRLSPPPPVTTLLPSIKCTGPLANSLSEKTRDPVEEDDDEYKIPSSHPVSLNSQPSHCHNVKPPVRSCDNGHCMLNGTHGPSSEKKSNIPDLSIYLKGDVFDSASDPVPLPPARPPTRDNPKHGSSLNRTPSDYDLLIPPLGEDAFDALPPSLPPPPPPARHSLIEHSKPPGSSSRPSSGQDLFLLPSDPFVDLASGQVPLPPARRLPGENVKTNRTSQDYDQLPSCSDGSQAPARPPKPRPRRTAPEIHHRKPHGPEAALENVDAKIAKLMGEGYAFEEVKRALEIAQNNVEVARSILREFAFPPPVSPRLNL
Experimental: (§1) Table 4: Chaser assay utilize a single cycle kinetics SPR experiment with a contact time of 120 seconds, a flow rate of 50 μl/min and a dissociation time of 450 seconds. […] The kd is measured independently by determining the percentage unoccupied compound binding site over time by measuring the binding of a chaser compound measured by SPR.Chaser binding was measured by a multicycle kinetics SPR experiment using a contact time of 20 seconds, a flow rate of 30 μl/min, and a dissociation time of 120 seconds. […] The % compound bound at a given time was determined by comparison to a single injection of chaser preceding the single cycle kinetics titration defined below.% Compound Bound=(1−(RUT/RUT0))*100

[3] = molecular target: T1, E3 ubiquitin-protein ligase CBL; assay: Multi-Point Chaser SPR Assay Variation
Experimental: as §1

Row | IC50 [1] | Kd [2] | Kd [3] | Structure (SMILES)
1 | ≥ 20000 nM | – | – | CC(=O)N1CC(c2cccc(N3Cc4c(cc(CNC5(C)CCC5)cc4C(F)(F)F)C3=O)c2)(c2nncn2C)C1 [US12187709, Compound 112]
2 | 115 nM | 1.3 nM | 15 nM | Cn1cnnc1[C@]1(c2cc(OC3CCCC3)nc(N3Cc4c(cc(CNC5(C)CCC5)cc4C(F)(F)F)C3=O)c2)C[C@H](C)C1 [US12187709, Compound 54]
3 | ≥ 20000 nM | – | – | CO[C@@](c1cccc(N2Cc3c(cc(CNC4(C)CCC4)cc3C(F)(F)F)C2=O)c1)(c1nncn1C)C1CCC1 (single isomer, unassigned) [US12187709, Compound 118]

Continued, compound first:

Row | Structure (SMILES) | IC50 [1] | Kd [2] | Kd [3]
4 | Cn1cnnc1[C@]1(c2cc(OC3CCCC3)nc(N3Cc4c(cc(CNC5(C)CCC5)cc4C(F)(F)F)C3=O)c2)C[C@@H](C)C1 [US12187709, Compound 55] | 9.4 nM | – | –
5 | Cn1cnnc1[C@]1(c2cc(NC3CCCCC3)nc(N3Cc4c(cc(CNC5(C)CCC5)cc4C(F)(F)F)C3=O)c2)C[C@@H](C)C1 [US12187709, Compound 50] | 53 nM | 6.5 nM | 20 nM
6 | Cn1cnnc1[C@]1(c2cc(NC3CCCCC3)nc(N3Cc4c(cc(CNC5(C)CCC5)cc4C(F)(F)F)C3=O)c2)C[C@H](C)C1 [US12187709, Compound 51] | 61 nM | – | –
7 | Cn1cnnc1[C@]1(c2cc(NC3CCCC3)nc(N3Cc4c(cc(CNC5(C)CCC5)cc4C(F)(F)F)C3=O)c2)C[C@@H](C)C1 [US12187709, Compound 52] | 9.4 nM | 0.95 nM | 11 nM
8 | Cn1cnnc1[C@]1(c2cc(NC3CCCC3)nc(N3Cc4c(cc(CNC5(C)CCC5)cc4C(F)(F)F)C3=O)c2)C[C@H](C)C1 [US12187709, Compound 53] | 6.3 nM | 0.7 nM | 6.5 nM
